Like-named read-outs stand apart in the source and are kept apart here.
Experiments:
[1] = test system: Klebsiella pneumoniae (KP) clinical isolates; experiment: KPC assay: growth in ertapenem with and without boronic acid inhibitor (MADM); format: cell-based
Method: The bottom surface was coated with poly-L-lysine to immobilize live bacteria.
Clinical isolates of Pseudomonas aeruginosa (PA), Acinetobacter baumannii (AB), and Klebsiella pneumoniae (KP) were tested. […] Test results are expressed as nonsusceptible (NS) or susceptible (S).
Isolates were grown on blood agar, suspended colonies in tryptic soy broth for 2 hours, then centrifuged and resuspended log-phase bacteria in low ionic strength electrokinetic buffer.
MADM system analysis was performed using a 32-channel disposable fluidic cassette (FIG. 4A) to measure growth of immobilized bacteria. […] Klebsiella pneumoniae (KP) clinical isolates were tested for ertapenem (ETP) nonsusceptibility at 16 μg/mL with and without the inhibitors aminophenyl boronic acid (APB) at 300 μg/mL or benzo(b)thiophene-2-boronic acid (BTB) at 50 μg/mL to identify putative KPC-positive strains.
10 μL aliquots of 5E+7 CFU/mL were pipetted into separate flowcells for each isolate and test condition. Microorganisms were electrokinetically concentrated onto the flowcell detection surface with an electrical field to the positively charged lower surface to immobilize cells and yield 10-100 bacteria per field of view (FIG. 4B). […] The system measured growth at 10-minute intervals. […] Growth was evaluated, interpreting results for PA, AB, and KP-ETP as NS if growth had not arrested within 3 hours. […]

[2] = test system: Pseudomonas aeruginosa (PSAE); experiment: MADM system resistance phenotype tests on respiratory specimens; format: cell-based; conditions: for resistance phenotype result (S/R), MADM: ID PSAE; for resistance phenotype result (S/R), MADM: key: S: susceptible; R: resistant
Method: (§1) These specimens were prepped for introduction into the MADM system. The system performed quantitative ID for Staphylococcus aureus (STAU), Pseudomonas aeruginosa (PSAE), and Acinetobacter spp. (ABCC). Concurrent quantitative culture was performed on specimens. The MADM system performed resistance phenotype tests on STAU-containing specimens for cefoxitin (FOX) MRSA phenotyping and clindamycin (CLI) resistance. The system tested ABCC- and PSAE-containing specimens for amikacin (AN) and imipenem (IMP) resistance.
(§2) Specimen preparation used a brief procedure to release bacteria, reduce imaging background, and suspend bacteria in a low ionic strength buffer. […] The remaining 62 specimens were tested using the MADM system.
(§3) 20 μL samples of prepared specimen were pipetted into independent flowcell channels and a low-voltage electrical field was applied for 5 minutes. The electrical field concentrated bacteria onto a functional surface coating that immobilized the bacteria on the lower flowcell surface. Each flowcell channel received only one type of test reagent solution that contained a selective agent if required (only for channels used to test AB, sulbactam 32 μg/mL).
(§4) The instrument acquired images at 10-minutes intervals for 180 minutes, using 10 fields of view in each flowcell channel through a 20× objective. Imaging used darkfield illumination. Identification variables included response to selective agents (AB with sulbactam), cell morphology, growth morphology, and growth rate.
(§5) Identification algorithms applied to each individual immobilized bacterial cell. The system measured the amount of change in mass over time to compute growth rates. Identification consisted of computing and combining probability scores for morphology, response to selective media, and growth rates to produce a receiver operating characteristic curve (ROC) to derive classification criteria.

[3] = test system: Pseudomonas aeruginosa (PSAE); format: cell-based; conditions: ID PSAE, culture result; note: key: S: susceptible; R: resistant
Excerpt: A total of 281 de-identified remnant respiratory specimens were collected from hospital and commercial sources. The specimens included 25 endotracheal aspirates (ETA) of unknown age obtained from a specimen vendor. Also included were 230 mini-bronchoalveolar lavage (mini-BAL) and 26 ETA specimens obtained from Denver Health Medical Center (DHMC). DHMC specimens were 7-21 days old. AST results were available for all mini-BAL specimens but not for ETA. Accompanying reports also included semi-quantitative ID used to select 92 bacteria-positive specimens for analysis using the MADM system. Targets included Pseudomonas aeruginosa, Acinetobacter baumannii complex, and Staphylococcus aureus. Controls used standard culturing methods (Cx).
as §1

[4] = test system: Acinetobacter spp. (ABCC); experiment: MADM system resistance phenotype tests on respiratory specimens; format: cell-based, Acinetobacter sp. For resistance phenotype result (S/R), MADM: key: S: susceptible; R: resistant.
Method: as §1, §2, §3, §4, §5

[5] = test system: Steno; experiment: MADM (BACcel) phenotype/sensitivity by growth analysis, surveillance mini-BAL; format: cell-based, S. maltophilia
Method: (§6) Adult MICU patients with identified surrogate were included within 72 hours of intubation and if anticipated to require MV for >48 h. Moribund state or pregnancy were exclusions. Surveillance mini-BAL (Combicath, Plastimed) was performed on Day 1, 3, 5, 7 and 10 of MV. Samples were split and processed for both a) routine respiratory quantitative microbiological culture and sensitivity assays (>48 h result availability) and b) rapid (<8 hour) flowcell/surface-capture assays using the MADM system. Viable microorganisms were identified using growth analysis enhanced by a focused VAP antibody panel (S. aureus, P. aeruginosa, A. baumannii). Untypable organisms were also reported. Sensitivity was assessed using growth analysis. Attending physicians were blinded to MADM system results.
(§7) BAL sample were prepared, removing debris and separating microorganisms from other sample material. Sample microorganisms were introduced into a multichannel fluidic cassette as described elsewhere herein. Bacteria were concentrated and retained on the lower surface of all flowcells using low-voltage electrical field (5 min) Antibody labeling of bacteria in flowcells was used to aid identification.
(§8) The automated digital microscopy system was used to perform darkfield imaging of 10 fields of view every 10 minutes for 180 minutes in each flowcell channel. Initial epifluorescence imaging was also performed for antibody detection. […] Identification consisted of probability scores based on microorganism morphology and growth rates. Antibody labeling identification data was also incorporated. Observed microorganisms were then classified as STAU, PSAE, or non-target. Antibiotic responses were used to aid identification when appropriate. Quantitation was performed by counting identified microorganisms and computing original specimen CFU/mL.

[6] = test system: Enteric; experiment: as above; format: cell-based; conditions: Spec# 005-D7, BACcel ID Enteric, 1.26 × 10^5 CFU/ml
Method: as §6
BAL sample were prepared, removing debris and separating microorganisms from other sample material. Sample microorganisms were introduced into a multichannel fluidic cassette as described elsewhere herein. […]
The automated digital microscopy system was used to perform darkfield imaging of 10 fields of view every 10 minutes for 180 minutes in each flowcell channel. […] Quantitation was performed by counting identified microorganisms and computing original specimen CFU/mL.

[7] = test system: Staphylococcus aureus (STAU); experiment: Culture (Cx) / hospital AST comparator on respiratory specimens; format: cell-based; conditions: for resistance phenotype result (S/R), Cx: ID STAU, culture result, MRSA by oxacillin; for resistance phenotype result (S/R), Cx: key: S: susceptible; R: resistant
Method: DHMC specimens were 7-21 days old. […] Controls used standard culturing methods (Cx).
(§9) (ABCC). Concurrent quantitative culture was performed on specimens.

[8] = test system: Staphylococcus aureus (STAU); experiment: MADM system resistance phenotype tests on respiratory specimens; format: cell-based; conditions: ID STAU, MRSA by FOX
Method: as §9
Specimen preparation used a brief procedure to release bacteria, reduce imaging background, and suspend bacteria in a low ionic strength buffer. […] We rejected 10 samples with heavy interfering background when dilution to OD600=0.3 yielded organism counts inadequate for analysis. We rejected 7 samples for other technical deficiencies. The remaining 62 specimens were tested using the MADM system.
as §3, §4, §5

[9] = test system: STAU; experiment: MADM (BACcel) phenotype/sensitivity by growth analysis, surveillance mini-BAL; format: cell-based, S. aureus
Method: as §6, §7, §8

[10] = test system: heat-killed cells and isopropyl alcohol killed cells; experiment: Esterase activity indicator fluorescence in killed cells (MADM system); format: cell-based
Excerpt: (§10) Physiologic indicators of active bacteria include indicators of growth, responsiveness to external stimulus, transcription, translation, energy dependent activity, enzyme activity, and an intact permeability barrier. The indicators tested experimentally were grouped according to the following functional categories of physiologic states to which they are responsive, which included indicators of respiratory and metabolic activity, and membrane integrity.
Carboxyfluorescein diacetate/carboxyfluorescein diacetate succinimidyl ester (CFDA/CFDA-SE; Molecular Probes) compounds are converted into amine-reactive fluorescent molecules when cleaved by esterases present within active cells. When CFDA-SE is taken up by live cells, the fluorescent molecule produced by esterase cleavage and amine reaction is retained inside the cell. […] The product formed by uptake and processing of CFDA, on the other hand, should be more “leaky” over time and may exit a dead cell. […] Shorter delay times have not yet been investigated but may be compatible with avoiding false positive results while providing a shorter assay period.

[11] = test system: E. coli; experiment: Membrane potential indicator staining; format: cell-based; conditions: 10 µg/ml DiBAC4(3), 15 min, room temp
Excerpt: as §10
Active bacterial cells maintain a proton gradient across their cell membranes, creating a membrane potential that may be measured using fluorescent dyes. However, the dyes used in this study to evaluate membrane potential are toxic to bacteria and can only be used as an endpoint assay.
DiBAC4(3) (Molecular Probes) is an anionic dye that enters depolarized cells (i.e., cells lacking a membrane potential) and fluoresces in the […] channel when it binds to intracellular proteins or membranes. Using this indicator, 18.5% of an overnight refrigerator stock (control) and 95% of heat-killed E. coli stained with 10 µg/ml DiBAC4(3) after a 15 min incubation period at room temp.

[12] = Spec# 006-D1, BACcel ID Steno, 7.68 × 10^5 CFU/ml
[13] = Spec# 006-D3, BACcel ID Steno, 1.60 × 10^4 CFU/ml
[14] = dyes added immediately after heat or isopropyl alcohol treatment

C[C@@H](O)[C@H]1C(=O)N2C(C(=O)O)=C(S[C@@H]3CN[C@H](C(=O)Nc4cccc(C(=O)O)c4)C3)[C@H](C)[C@H]12 [ETP, ertapenem]
abnormal growth morphology: growth morphology during drug exposure ([1]; KPC clinical isolate, ETP 16 μg/mL, 20 and 90 min of exposure (FIG. 20))
fail to grow: growth of susceptible (KPC-negative) strains ([1]; ETP at 16 μg/mL (FIG. 21))

NCC[C@H](O)C(=O)N[C@@H]1C[C@H](N)[C@@H](O[C@H]2O[C@H](CN)[C@@H](O)[C@H](O)[C@H]2O)[C@H](O)[C@H]1O[C@H]1O[C@H](CO)[C@@H](O)[C@H](N)[C@H]1O [AN, amikacin]
growth, TZP-: Phenotype, sensitivity (growth in antibiotic) [5, 12] | Phenotype, sensitivity (growth in antibiotic) [5, 13]
susceptible: susceptibility of all PSAE ([2]; all PSAE-containing respiratory specimens) | susceptibility of all ABCC ([4]; all ABCC-containing respiratory specimens)
S: resistance phenotype result (S/R), MADM ([2]; specimen DH 430, Mini-BAL) | resistance phenotype result (S/R), MADM ([2]; specimen DH 554, BAL) | resistance phenotype result (S/R), MADM ([2]; specimen DH 641, Mini-BAL) | resistance phenotype result (S/R), Cx ([3]; specimen DH 430, Mini-BAL) | resistance phenotype result (S/R), Cx ([3]; specimen DH 554, BAL) | resistance phenotype result (S/R), Cx ([3]; specimen DH 641, Mini-BAL) | resistance phenotype result (S/R), MADM ([4]; ABCC-positive specimen (specimen name not given))

CC(C)(O/N=C(\C(=O)N[C@@H]1C(=O)N2C(C(=O)[O-])=C(C[n+]3ccccc3)CS[C@H]12)c1csc(N)n1)C(=O)O [CAZ, ceftazidime]
growth, TZP-: Phenotype, sensitivity (growth in antibiotic) [5, 12] | Phenotype, sensitivity (growth in antibiotic) [5, 13]
all growth: Phenotype, sensitivity (growth in antibiotic) [6]

Cc1onc(-c2ccccc2)c1C(=O)N[C@@H]1C(=O)N2[C@@H]1SC(C)(C)[C@@H]2C(=O)O [OXA, oxacillin]
MSSA: MRSA/MSSA call by oxacillin MIC (hospital AST) ([7]; the one discordant STAU sample)
R: resistance phenotype result (S/R), Cx ([7]; specimen DH 439, Mini-BAL) | resistance phenotype result (S/R), Cx ([7]; specimen T12, ETA)
S: resistance phenotype result (S/R), Cx ([7]; specimen DH 425, Mini-BAL) | resistance phenotype result (S/R), Cx ([7]; specimen DH 427, Mini-BAL) | resistance phenotype result (S/R), Cx ([7]; specimen DH 440, BAL) | resistance phenotype result (S/R), Cx ([7]; specimen DH 457, BAL) | resistance phenotype result (S/R), Cx ([7]; specimen DH 485, BAL) | resistance phenotype result (S/R), Cx ([7]; specimen DH 509, BAL) | resistance phenotype result (S/R), Cx ([7]; specimen DH 514, Mini-BAL) | resistance phenotype result (S/R), Cx ([7]; specimen DH 543, BAL) | resistance phenotype result (S/R), Cx ([7]; specimen DH 550, BAL) | resistance phenotype result (S/R), Cx ([7]; specimen DH 556, Mini-BAL)

CCC[C@@H]1C[C@@H](C(=O)N[C@@H]([C@H]2O[C@H](SC)[C@H](O)[C@@H](O)[C@H]2O)[C@H](C)Cl)N(C)C1 [CLI, clindamycin]
S: resistance phenotype result (S/R), MADM ([8]; specimen DH 425, Mini-BAL) | resistance phenotype result (S/R), MADM ([8]; specimen DH 427, Mini-BAL) | resistance phenotype result (S/R), MADM ([8]; specimen DH 439, Mini-BAL) | resistance phenotype result (S/R), MADM ([8]; specimen DH 440, BAL) | resistance phenotype result (S/R), MADM ([8]; specimen DH 457, BAL) | resistance phenotype result (S/R), MADM ([8]; specimen DH 485, BAL) | resistance phenotype result (S/R), MADM ([8]; specimen DH 509, BAL) | resistance phenotype result (S/R), MADM ([8]; specimen DH 514, Mini-BAL) | resistance phenotype result (S/R), MADM ([8]; specimen DH 543, BAL) | resistance phenotype result (S/R), MADM ([8]; specimen DH 550, BAL) | resistance phenotype result (S/R), MADM ([8]; specimen DH 556, Mini-BAL) | resistance phenotype result (S/R), MADM ([8]; specimen T12, ETA) | resistance phenotype result (S/R), Cx ([7]; specimen DH 425, Mini-BAL) | resistance phenotype result (S/R), Cx ([7]; specimen DH 427, Mini-BAL) | resistance phenotype result (S/R), Cx ([7]; specimen DH 439, Mini-BAL) | resistance phenotype result (S/R), Cx ([7]; specimen DH 440, BAL) | resistance phenotype result (S/R), Cx ([7]; specimen DH 457, BAL) | resistance phenotype result (S/R), Cx ([7]; specimen DH 485, BAL) | resistance phenotype result (S/R), Cx ([7]; specimen DH 509, BAL) | resistance phenotype result (S/R), Cx ([7]; specimen DH 514, Mini-BAL) | resistance phenotype result (S/R), Cx ([7]; specimen DH 543, BAL) | resistance phenotype result (S/R), Cx ([7]; specimen DH 550, BAL) | resistance phenotype result (S/R), Cx ([7]; specimen DH 556, Mini-BAL) | resistance phenotype result (S/R), Cx ([7]; specimen T12, ETA)
(MRSA) CLI-R: Phenotype, sensitivity ([9]; Spec# 008-D7, BACcel ID STAU, 1.11 × 10^6 CFU/ml)
MRSA, CLI-R: Phenotype, sensitivity ([9]; Spec# 033-D7, BACcel ID STAU, 6.64 × 10^4 CFU/ml)

carboxyfluorescein diacetate succinimidyl ester [CFDA-SE]
demonstrated fluorescence: fluorescence of killed cells [10, 14]
no fluorescence was observed: fluorescence of killed cells ([10]; two hour post-heat-kill delay)

CCCCN1C(=O)C(=CC=Cc2c(O)n(CCCC)c(=O)n(CCCC)c2=O)C(=O)N(CCCC)C1=O [DiBAC4(3)]
18.5%: cells stained ([11]; overnight refrigerator stock (control) E. coli)
95%: cells stained ([11]; heat-killed E. coli)

Carboxyfluorescein diacetate [CFDA]
demonstrated fluorescence: fluorescence of killed cells [10, 14]

From patent US20160010138A1, “RAPID DETERMINATION OF MICROBIAL DROWTH AND ANTIMICROBIAL SUSEPTABILITY” (priority 2013, published 2016)
